Reference: PMC9951859, “Investigation of α,ω-Disubstituted Polyamine-Cholic Acid Conjugates Identifies Hyodeoxycholic and Chenodeoxycholic Scaffolds as Non-Toxic, Potent Antimicrobials” (Antibiotics, 2023)
In brackets after ≈: the same amount, converted by molar mass. Like-named read-outs stand apart in the source and are kept apart here.

Columns and labels:
E. coli ATCC 25922 = assay: Antibiotic enhancement of erythromycin; type: cell-based, Escherichia coli; details: erythromycin at 2 μg/mL
Procedure: (§1) Restoring enhancer concentrations were determined with an inoculum of 5 × 10^5 CFU in […] of MH broth containing two-fold serial dilutions of each derivative in the presence of either doxycycline or erythromycin at 2 μg/mL. […] These measurements were independently repeated in triplicate.

human red blood cells = assay: Hemolytic assay; type: cell-based; details: concentration at 10% hemolytic activity on human red blood cells; mean (n = 2); top dose tested 32 μg/mL
Procedure: Hemolytic assays were conducted using the protocols previously reported.

[1] = test system: Acinetobacter baumannii ATCC 19606; assay: Antimicrobial MIC assay (CO-ADD) against A. baumannii; type: cell-based; details: Acinetobacter baumannii, ATCC19606, read-out: MIC A.b.
From the text: (§2) Antimicrobial evaluation against S. aureus (MRSA) (ATCC 43300), E. coli (ATCC 25922), K. pneumoniae (ATCC 700603), A. baumannii (ATCC 19606), C. albicans (ATCC 90028), and C. neoformans (ATCC 208821) was undertaken at the Community for Open Antimicrobial Drug Discovery at The University of Queensland (Australia) according to their standard protocols as reported previously.

P. aeruginosa ATCC 27853 = assay: Antibiotic enhancement of doxycycline; type: cell-based, Pseudomonas aeruginosa; details: doxycycline at 2 μg/mL
Procedure: as §1

[2] = Cytotoxicity assay on HEK293; type: cell-based, human; details: human, HEK293 human embryonic kidney cells; concentration at 50% cytotoxicity on HEK293; mean (n = 2); top dose tested 32 μg/mL
Procedure: Cytotoxicity assays were conducted using the protocols previously reported.

[3] = test system: Staphylococcus aureus ATCC 43300 (MRSA); assay: Antimicrobial MIC assay (CO-ADD) against S. aureus MRSA; type: cell-based; details: Staphylococcus aureus, read-out: MIC S.a.
From the text: as §2

[4] = test system: Cryptococcus neoformans ATCC 208821; assay: Antimicrobial MIC assay (CO-ADD) against C. neoformans; type: cell-based
From the text: as §2

[5] = test system: Pseudomonas aeruginosa ATCC 27853; assay: Antimicrobial MIC assay (CO-ADD) against P. aeruginosa; type: cell-based; details: Pseudomonas aeruginosa, ATCC27853, read-out: MIC P.a.
[6] = test system: Candida albicans ATCC 90028; assay: Antimicrobial MIC assay (CO-ADD) against C. albicans; type: cell-based; details: mean (n = 2)
From the text: as §2

[7] = test system: Escherichia coli ATCC 25922; assay: Antimicrobial MIC assay (CO-ADD) against E. coli; type: cell-based; details: Escherichia coli, ATCC25922, read-out: MIC E.c.
From the text: as §2

[8] = test system: Klebsiella pneumoniae ATCC 700603; assay: Antimicrobial MIC assay (CO-ADD) against K. pneumoniae; type: cell-based; details: Klebsiella pneumoniae, ATCC700603, read-out: MIC K.p.
From the text: as §2

[9] = Cryptococcus neoformans, ATCC208821, read-out: MIC C.n.
[10] = Candida albicans, ATCC90028, read-out: MIC C.a., Candida albicans ATCC 90028

SMILES	enhancement of antibiotic activity of erythromycin (E. coli ATCC 25922)	Hemolysis (HC10) (human red blood cells) [µM]	MIC [1] [µM]	enhancement of antibiotic activity of doxycycline (P. aeruginosa ATCC 27853)	IC50 [2] [µM]	MIC [3] [µM]	MIC [4, 9] [µM]	MIC [5] [µM]	MIC [6, 10] [µM]	MIC [7] [µM]	MIC [8] [µM]	MIC ([4]; ATCC208821, Cryptococcus neoformans ATCC 208821, mean (n = 2), read-out: MIC C.n.) [µM]	MIC ([6]; ATCC90028, Candida albicans ATCC 90028, read-out: MIC C.a.) [µM]
C[C@H](CCC(=O)NCCCNCCCCNCCCNC(=O)CC[C@@H](C)[C@H]1CC[C@H]2[C@@H]3C[C@H](O)[C@@H]4C[C@H](O)CC[C@]4(C)[C@H]3CC[C@]12C)[C@H]1CC[C@H]2[C@@H]3C[C@H](O)[C@@H]4C[C@H](O)CC[C@]4(C)[C@H]3CC[C@]12C.O=C(O)C(F)(F)F.O=C(O)C(F)(F)F [Compound 7a, N^1,N^4-Bis(3-((R)-4-((3R,5R,6S,8S,9S,10R,13R,14S,17R)-3,6-dihydroxy-10,13-dimethylhexadecahydro-1H-cyclopenta[a]phenanthren-17-yl)pentanamido)propyl)butane-1,4-diaminium 2,2,2-trifluoroacetate]	No enhancement was observed	>27	> 27	No enhancement was observed	> 27	3.4	≤ 0.21	> 27	14	> 27	> 27		
CN[C@H](CC(C)C)C(=O)N[C@H]1C(=O)N[C@@H](CC(N)=O)C(=O)N[C@H]2C(=O)N[C@H]3C(=O)N[C@H](C(=O)N[C@H](C(=O)O)c4cc(O)cc(O)c4-c4cc3ccc4O)[C@H](O)c3ccc(c(Cl)c3)Oc3cc2cc(c3O[C@@H]2O[C@H](CO)[C@@H](O)[C@H](O)[C@H]2O[C@H]2C[C@](C)(N)[C@H](O)[C@H](C)O2)Oc2ccc(cc2Cl)[C@H]1O [vancomycin, reference compound]						0.7 (≈ 1.01 µg/mL)							
OC(Cn1cncn1)(Cn1cncn1)c1ccc(F)cc1F [fluconazole, reference compound]												26 (≈ 7.96 µg/mL)	0.4 (≈ 0.123 µg/mL)
C[C@H](CCC(=O)NCCCNCCCCCCCNCCCNC(=O)CC[C@@H](C)[C@H]1CC[C@H]2[C@@H]3[C@@H](O)C[C@@H]4C[C@H](O)CC[C@]4(C)[C@H]3CC[C@]12C)[C@H]1CC[C@H]2[C@@H]3[C@@H](O)C[C@@H]4C[C@H](O)CC[C@]4(C)[C@H]3CC[C@]12C.O=C(O)C(F)(F)F.O=C(O)C(F)(F)F [Compound 8c, N^1,N^7-Bis(3-((R)-4-((3R,5S,7S,8R,9S,10S,13R,14S,17R)-3,7-dihydroxy-10,13-dimethylhexadecahydro-1H-cyclopenta[a]phenanthren-17-yl)pentanamido)propyl)heptane-1,7-diaminium 2,2,2-trifluoroacetate]		11	> 26		> 26	≤ 0.21	26	> 26	13	> 26	> 26		
C[C@H](CCC(=O)NCCCNCCCCNCCCNC(=O)CC[C@@H](C)[C@H]1CC[C@H]2[C@@H]3[C@@H](O)C[C@@H]4C[C@H](O)CC[C@]4(C)[C@H]3CC[C@]12C)[C@H]1CC[C@H]2[C@@H]3[C@@H](O)C[C@@H]4C[C@H](O)CC[C@]4(C)[C@H]3CC[C@]12C.O=C(O)C(F)(F)F.O=C(O)C(F)(F)F [Compound 8a, N^1,N^4-Bis(3-((R)-4-((3R,5S,7S,8R,9S,10S,13R,14S,17R)-3,7-dihydroxy-10,13-dimethylhexadecahydro-1H-cyclopenta[a]phenanthren-17-yl)pentanamido)propyl)butane-1,4-diaminium 2,2,2-trifluoroacetate]		7.3	> 27		> 27	27	> 27	> 27	27	> 27	> 27		
C[C@H](CCC(=O)NCCCNCCCCCCCCNCCCNC(=O)CC[C@@H](C)[C@H]1CC[C@H]2[C@@H]3[C@@H](O)C[C@@H]4C[C@H](O)CC[C@]4(C)[C@H]3CC[C@]12C)[C@H]1CC[C@H]2[C@@H]3[C@@H](O)C[C@@H]4C[C@H](O)CC[C@]4(C)[C@H]3CC[C@]12C.O=C(O)C(F)(F)F.O=C(O)C(F)(F)F [Compound 8d, N^1,N^8-Bis(3-((R)-4-((3R,5S,7S,8R,9S,10S,13R,14S,17R)-3,7-dihydroxy-10,13-dimethylhexadecahydro-1H-cyclopenta[a]phenanthren-17-yl)pentanamido)propyl)octane-1,8-diaminium 2,2,2-trifluoroacetate]		5.6	> 26		> 26	≤ 0.2	13	> 26	26	> 26	> 26		
C[C@H](CCC(=O)NCCCNCCCCCCNCCCNC(=O)CC[C@@H](C)[C@H]1CC[C@H]2[C@@H]3[C@@H](O)C[C@@H]4C[C@H](O)CC[C@]4(C)[C@H]3CC[C@]12C)[C@H]1CC[C@H]2[C@@H]3[C@@H](O)C[C@@H]4C[C@H](O)CC[C@]4(C)[C@H]3CC[C@]12C.O=C(O)C(F)(F)F.O=C(O)C(F)(F)F [Compound 8b, N^1,N^6-Bis(3-((R)-4-((3R,5S,7S,8R,9S,10S,13R,14S,17R)-3,7-dihydroxy-10,13-dimethylhexadecahydro-1H-cyclopenta[a]phenanthren-17-yl)pentanamido)propyl)hexane-1,6-diaminium 2,2,2-trifluoroacetate]		11	> 26		> 27	1.7	> 27	> 26	27	> 26	> 26		
CC/C(=C(\c1ccccc1)c1ccc(OCCN(C)C)cc1)c1ccccc1 [Tamoxifen, reference compound]					24								
C[C@H](CCC(=O)NCCCNCCCCCCCCCCCCNCCCNC(=O)CC[C@@H](C)[C@H]1CC[C@H]2[C@@H]3C[C@H](O)[C@@H]4C[C@H](O)CC[C@]4(C)[C@H]3CC[C@]12C)[C@H]1CC[C@H]2[C@@H]3C[C@H](O)[C@@H]4C[C@H](O)CC[C@]4(C)[C@H]3CC[C@]12C.O=C(O)C(F)(F)F.O=C(O)C(F)(F)F [Compound 7f, N^1,N^12-Bis(3-((R)-4-((3R,5R,6S,8S,9S,10R,13R,14S,17R)-3,6-dihydroxy-10,13-dimethylhexadecahydro-1H-cyclopenta[a]phenanthren-17-yl)pentanamido)propyl)dodecane-1,12-diaminium 2,2,2-trifluoroacetate]		>25	> 25		25	≤ 0.19	≤ 0.19	> 25	≤ 0.2	> 25	> 25		
C[C@H](CCC(=O)NCCCNCCCCCCNCCCNC(=O)CC[C@@H](C)[C@H]1CC[C@H]2[C@@H]3C[C@H](O)[C@@H]4C[C@H](O)CC[C@]4(C)[C@H]3CC[C@]12C)[C@H]1CC[C@H]2[C@@H]3C[C@H](O)[C@@H]4C[C@H](O)CC[C@]4(C)[C@H]3CC[C@]12C.O=C(O)C(F)(F)F.O=C(O)C(F)(F)F [Compound 7b, N^1,N^6-Bis(3-((R)-4-((3R,5R,6S,8S,9S,10R,13R,14S,17R)-3,6-dihydroxy-10,13-dimethylhexadecahydro-1H-cyclopenta[a]phenanthren-17-yl)pentanamido)propyl)hexane-1,6-diaminium 2,2,2-trifluoroacetate]		>26	> 26		> 26	≤ 0.21	≤ 0.21	> 26	13	> 26	> 26		
C[C@H](CCC(=O)NCCCNCCCCCCCCCCNCCCNC(=O)CC[C@@H](C)[C@H]1CC[C@H]2[C@@H]3[C@@H](O)C[C@@H]4C[C@H](O)CC[C@]4(C)[C@H]3CC[C@]12C)[C@H]1CC[C@H]2[C@@H]3[C@@H](O)C[C@@H]4C[C@H](O)CC[C@]4(C)[C@H]3CC[C@]12C.O=C(O)C(F)(F)F.O=C(O)C(F)(F)F [Compound 8e, N^1,N^10-Bis(3-((R)-4-((3R,5S,7S,8R,9S,10S,13R,14S,17R)-3,7-dihydroxy-10,13-dimethylhexadecahydro-1H-cyclopenta[a]phenanthren-17-yl)pentanamido)propyl)decane-1,10-diaminium 2,2,2-trifluoroacetate]		3.3	> 25		> 25	≤ 0.2	1.6	> 25	3.2	> 25	> 25		
